According to ChEMBL document CHEMBL1201862, “PubChem BioAssay data set” (2004):
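Results reflect a 48-hour exposure of cells in 96-well plates to compound at five concentrations. At the GI50, growth is halved.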 Active and inactive are the calls of the source. No stated cut-off is given here; in the data, active = GI50 up to about 1.1 µM and inactive = higher.

Columns and labels:
Assay in all cases: NCI tumour cell line growth inhibition, 48 h
[1] = test system: 786-0
[2] = test system: A498
[3] = test system: A549
[4] = test system: ACHN
[5] = test system: BT-549
[6] = test system: CAKI-1
[7] = test system: CCRF-CEM
[8] = test system: COLO 205
[9] = test system: DU-145
[10] = test system: EKVX
[11] = test system: HCC 2998
[12] = test system: HCT-116
[13] = test system: HCT-15
[14] = test system: HL-60
[15] = test system: HOP-62
[16] = test system: HOP-92
[17] = test system: HT-29
[18] = test system: Hs-578T
[19] = test system: IGROV-1
[20] = test system: K562
[21] = test system: KM12
[22] = test system: LOX IMVI
[23] = test system: M14
[24] = test system: MCF7
[25] = test system: MDA-MB-231
[26] = test system: MDA-MB-435
[27] = test system: MDA-N
[28] = test system: MOLT-4
[29] = test system: Malme-3M
[30] = test system: NCI-H226
[31] = test system: NCI-H23
[32] = test system: NCI-H460
[33] = test system: NCI-H522
[34] = test system: NCI/ADR-RES
[35] = test system: OVCAR-3
[36] = test system: OVCAR-4
[37] = test system: OVCAR-5
[38] = test system: OVCAR-8
[39] = test system: PC-3
[40] = test system: SF-268
[41] = test system: SF-295
[42] = test system: SF-539
[43] = test system: SK-MEL-28
[44] = test system: SK-MEL-2
[45] = test system: SK-MEL-5
[46] = test system: SK-OV-3
[47] = test system: SN12C
[48] = test system: SNB-19
[49] = test system: SNB-75
[50] = test system: SR
[51] = test system: SW-620
[52] = test system: T47D
[53] = test system: TK-10
[54] = test system: U-251
[55] = test system: UACC-257
[56] = test system: UACC-62
[57] = test system: UO-31
[58] = test system: RPMI-8226
[59] = test system: RXF 393

Cc1cc(=O)[nH]c2cc(NC(=O)C(CCCNC(=N)N)NC(=O)OCc3ccccc3)ccc12 (stereo not drawn)
GI50 [1]: > 100 µM (inactive)
GI50 [2]: > 100 µM (inactive)
GI50 [3]: > 100 µM (inactive)
GI50 [4]: > 100 µM (inactive)
GI50 [5]: > 100 µM (inactive)
GI50 [6]: > 100 µM (inactive)
GI50 [7]: > 100 µM (inactive)
GI50 [8]: > 100 µM (inactive)
GI50 [9]: > 100 µM (inactive)
GI50 [10]: > 100 µM (inactive)
GI50 [11]: > 100 µM (inactive)
GI50 [12]: > 100 µM (inactive)
GI50 [13]: > 100 µM
GI50 [14]: > 100 µM (inactive)
GI50 [15]: > 100 µM (inactive)
GI50 [16]: 78.5 µM (inactive)
GI50 [17]: > 100 µM (inactive)
GI50 [18]: > 100 µM (inactive)
GI50 [19]: > 100 µM (inactive)
GI50 [20]: > 100 µM (inactive)
GI50 [21]: > 100 µM (inactive)
GI50 [22]: > 100 µM (inactive)
GI50 [23]: > 100 µM (inactive)
GI50 [24]: > 100 µM (inactive)
GI50 [25]: > 100 µM (inactive)
GI50 [26]: > 100 µM (inactive)
GI50 [27]: > 100 µM (inactive)
GI50 [28]: > 100 µM (inactive)
GI50 [29]: > 100 µM (inactive)
GI50 [30]: > 100 µM (inactive)
GI50 [31]: > 100 µM (inactive)
GI50 [32]: > 100 µM (inactive)
GI50 [33]: > 100 µM (inactive)
GI50 [34]: > 100 µM (inactive)
GI50 [35]: > 100 µM (inactive)
GI50 [36]: > 100 µM (inactive)
GI50 [37]: > 100 µM (inactive)
GI50 [38]: > 100 µM (inactive)
GI50 [39]: > 100 µM (inactive)
GI50 [40]: > 100 µM (inactive)
GI50 [41]: 48.5 µM (inactive)
GI50 [42]: > 100 µM (inactive)
GI50 [43]: > 100 µM (inactive)
GI50 [44]: > 100 µM (inactive)
GI50 [45]: > 100 µM (inactive)
GI50 [46]: 4.28 µM (inactive)
GI50 [47]: > 100 µM (inactive)
GI50 [48]: > 100 µM (inactive)
GI50 [49]: > 100 µM (inactive)
GI50 [50]: > 100 µM (inactive)
GI50 [51]: > 100 µM (inactive)
GI50 [52]: > 100 µM (inactive)
GI50 [53]: > 100 µM (inactive)
GI50 [54]: > 100 µM (inactive)
GI50 [55]: > 100 µM (inactive)
GI50 [56]: > 100 µM (inactive)
GI50 [57]: > 100 µM (inactive)

C[C@]12CCC3=NCCN3C1=CC[C@@H]1[C@@H]2CC[C@@]2(C)[C@H]1CC[C@]2(C)O
GI50 [1]: 14.6 µM (inactive)
GI50 [2]: 26.9 µM (inactive)
GI50 [3]: > 100 µM (inactive)
GI50 [4]: > 100 µM (inactive)
GI50 [5]: 44 µM (inactive)
GI50 [6]: > 100 µM (inactive)
GI50 [8]: 25.8 µM (inactive)
GI50 [9]: > 100 µM (inactive)
GI50 [10]: 96.4 µM (inactive)
GI50 [12]: 31 µM (inactive)
GI50 [13]: 53.2 µM
GI50 [15]: 84.9 µM (inactive)
GI50 [16]: 37.2 µM (inactive)
GI50 [17]: 16.1 µM (inactive)
GI50 [18]: 30.5 µM (inactive)
GI50 [19]: 39.1 µM (inactive)
GI50 [20]: 34.7 µM (inactive)
GI50 [21]: 82.6 µM (inactive)
GI50 [22]: 32.2 µM (inactive)
GI50 [23]: 89.1 µM (inactive)
GI50 [24]: 61.9 µM (inactive)
GI50 [25]: > 100 µM (inactive)
GI50 [26]: 84.9 µM (inactive)
GI50 [27]: 61.9 µM (inactive)
GI50 [28]: 35.3 µM (inactive)
GI50 [29]: 24.5 µM (inactive)
GI50 [30]: 39.5 µM (inactive)
GI50 [31]: 59.6 µM (inactive)
GI50 [32]: 38.3 µM (inactive)
GI50 [33]: 58.1 µM (inactive)
GI50 [34]: > 100 µM (inactive)
GI50 [35]: > 100 µM (inactive)
GI50 [36]: > 100 µM (inactive)
GI50 [37]: > 100 µM (inactive)
GI50 [38]: 45.9 µM (inactive)
GI50 [39]: 62.5 µM (inactive)
GI50 [58]: 15 µM (inactive)
GI50 [59]: 23 µM (inactive)
GI50 [40]: 76.7 µM (inactive)
GI50 [41]: 20.7 µM (inactive)
GI50 [42]: 22.2 µM (inactive)
GI50 [43]: 28.8 µM (inactive)
GI50 [44]: 50 µM (inactive)
GI50 [45]: 17.6 µM (inactive)
GI50 [46]: > 100 µM (inactive)
GI50 [47]: > 100 µM (inactive)
GI50 [48]: > 100 µM (inactive)
GI50 [49]: 40.7 µM (inactive)
GI50 [50]: 38.8 µM (inactive)
GI50 [51]: 85.1 µM (inactive)
GI50 [52]: 87.1 µM (inactive)
GI50 [53]: 41.1 µM (inactive)
GI50 [54]: 87.3 µM (inactive)
GI50 [55]: 24.4 µM (inactive)
GI50 [56]: 29.3 µM (inactive)
GI50 [57]: 68.1 µM (inactive)
